Data: ChEMBL document CHEMBL1201862, “PubChem BioAssay data set” (2004)
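Five compound concentrations were applied to cells in 96-well plates for 48 hours; endpoints were derived by simple linear interpolation of the resulting dose-response curve. GI50 is the concentration that inhibits growth by half.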 The source made the active and inactive calls. No stated cut-off is given here; in the data, active = GI50 up to about 1.1 µM and inactive = higher.

Experiments:
Test in all cases: DTP human tumour cell line panel, 48 h
HOP-62 = tested on: HOP-62
CCRF-CEM = tested on: CCRF-CEM
SK-MEL-5 = tested on: SK-MEL-5
HT-29 = tested on: HT-29
HCT-15 = tested on: HCT-15
SK-OV-3 = tested on: SK-OV-3
A498 = tested on: A498
SK-MEL-28 = tested on: SK-MEL-28
NCI/ADR-RES = tested on: NCI/ADR-RES
SNB-75 = tested on: SNB-75
NCI-H460 = tested on: NCI-H460
K562 = tested on: K562
OVCAR-5 = tested on: OVCAR-5
A549 = tested on: A549
U-251 = tested on: U-251
TK-10 = tested on: TK-10
MDA-MB-435 = tested on: MDA-MB-435
UACC-257 = tested on: UACC-257
M14 = tested on: M14
NCI-H226 = tested on: NCI-H226

| SMILES | GI50 (HOP-62) | GI50 (CCRF-CEM) | GI50 (SK-MEL-5) | GI50 (HT-29) | GI50 (HCT-15) | GI50 (SK-OV-3) | GI50 (A498) | GI50 (SK-MEL-28) | GI50 (NCI/ADR-RES) | GI50 (SNB-75) | GI50 (NCI-H460) | GI50 (K562) | GI50 (OVCAR-5) | GI50 (A549) | GI50 (U-251) | GI50 (TK-10) | GI50 (MDA-MB-435) | GI50 (UACC-257) | GI50 (M14) | GI50 (NCI-H226) |
| --- | --- | --- | --- | --- | --- | --- | --- | --- | --- | --- | --- | --- | --- | --- | --- | --- | --- | --- | --- | --- |
| CC(C)(C)c1ccc(-c2nc3ccc([N+](=O)[O-])cc3c(=O)o2)cc1 | 22.2 µM (inactive) | 20.1 µM (inactive) | 27.2 µM (inactive) | 24.7 µM (inactive) | 22.6 µM | 31.5 µM (inactive) | 29.9 µM (inactive) | 34.4 µM (inactive) | 25.4 µM (inactive) | 24.9 µM (inactive) | 36.4 µM (inactive) | 19.1 µM (inactive) | 32.8 µM (inactive) | 28.9 µM (inactive) | 15 µM (inactive) | 38.8 µM (inactive) | 25.1 µM (inactive) | 29.6 µM (inactive) | 26.5 µM (inactive) | – |
| CCOc1cc(-c2nc3cc(F)ccc3s2)ccc1O | – | 0.6 µM (active) | 16.6 µM (inactive) | 18.1 µM (inactive) | 14.9 µM | 18.7 µM (inactive) | 12.6 µM (inactive) | 27.6 µM (inactive) | 23 µM (inactive) | – | 17.3 µM (inactive) | < 0.01 µM (active) | 18.7 µM (inactive) | 17.9 µM (inactive) | 19.5 µM (inactive) | 18.7 µM (inactive) | 18.2 µM (inactive) | 16.8 µM (inactive) | 17.2 µM (inactive) | 17 µM (inactive) |
| CCOC(=O)/C(C#N)=C(/NS(=O)(=O)c1cc(C)c(Cl)cc1[S-])[n+]1ccc(N(C)C)cc1 | > 100 µM (inactive) | > 100 µM (inactive) | > 100 µM (inactive) | > 100 µM (inactive) | > 100 µM | > 100 µM (inactive) | > 100 µM (inactive) | > 100 µM (inactive) | > 100 µM (inactive) | – | > 100 µM (inactive) | > 100 µM (inactive) | > 100 µM (inactive) | > 100 µM (inactive) | > 100 µM (inactive) | > 100 µM (inactive) | > 100 µM (inactive) | > 100 µM (inactive) | > 100 µM (inactive) | > 100 µM (inactive) |
| O=S(=O)(/N=C(\NO)Nc1ccc(Cl)cc1)C1CC=C(c2ccon2)S1 (centres undefined) | 40.5 µM (inactive) | 12.2 µM (inactive) | 20.4 µM (inactive) | 42.7 µM (inactive) | 15.5 µM | > 100 µM (inactive) | 7.24 µM (inactive) | 23.5 µM (inactive) | 22.1 µM (inactive) | – | 16 µM (inactive) | 7.1 µM (inactive) | > 66.2 µM (inactive) | 32.1 µM (inactive) | 15.8 µM (inactive) | 14.4 µM (inactive) | 8.91 µM (inactive) | 12.5 µM (inactive) | 29 µM (inactive) | 13.4 µM (inactive) |
| CC(C)(N)C(=O)N[C@@H]1C(=O)N2[C@@H]1SC(C)(C)[C@@H]2C(=O)O | > 100 µM (inactive) | – | > 100 µM (inactive) | > 100 µM (inactive) | > 100 µM | > 100 µM (inactive) | > 100 µM (inactive) | > 100 µM (inactive) | > 100 µM (inactive) | > 100 µM (inactive) | > 100 µM (inactive) | > 100 µM (inactive) | > 100 µM (inactive) | > 100 µM (inactive) | > 100 µM (inactive) | > 100 µM (inactive) | > 100 µM (inactive) | > 100 µM (inactive) | > 100 µM (inactive) | > 100 µM (inactive) |
| Cc1cc(C)c2c(n1)S(=O)(=O)N(CCCN1CCN(c3cccc(Cl)c3)CC1)C(C(=O)c1ccc(Br)cc1)=C2O | 19.9 µM (inactive) | 19.9 µM (inactive) | 15.4 µM (inactive) | 25.4 µM (inactive) | 16.7 µM | 29.5 µM (inactive) | 34.9 µM (inactive) | 28.2 µM (inactive) | 18.8 µM (inactive) | 10.3 µM (inactive) | 8.91 µM (inactive) | 27.8 µM (inactive) | 36.2 µM (inactive) | 22.1 µM (inactive) | 21.3 µM (inactive) | 17.7 µM (inactive) | 18.2 µM (inactive) | 15.3 µM (inactive) | 19.4 µM (inactive) | – |
| Cc1csc2nc(-c3cc([N+](=O)[O-])c(Cl)cc3Cl)c(/C=N/N=C(N)N)n12 | 16.3 µM (inactive) | 27.2 µM (inactive) | 16.1 µM (inactive) | 16.1 µM (inactive) | 21.2 µM | – | 19.6 µM (inactive) | 16.4 µM (inactive) | 15.3 µM (inactive) | – | 20.2 µM (inactive) | 6.53 µM (inactive) | 17.4 µM (inactive) | 19 µM (inactive) | 16.6 µM (inactive) | 16.8 µM (inactive) | 17.1 µM (inactive) | 17.8 µM (inactive) | 17.1 µM (inactive) | 18.5 µM (inactive) |
| CS(=O)(=O)N1CC(CI)c2ccc(O)cc21 (centres undefined) | 3.02 µM (inactive) | 0.807 µM (active) | 1.43 µM (inactive) | 3.4 µM (inactive) | 3.13 µM | – | 2.77 µM (inactive) | 3.23 µM (inactive) | 2.75 µM (inactive) | 1.79 µM (inactive) | 2.35 µM (inactive) | 2.66 µM (inactive) | 2.29 µM (inactive) | 3.56 µM (inactive) | 2.49 µM (inactive) | 2.28 µM (inactive) | 1.89 µM (inactive) | 3.36 µM (inactive) | – | 3.5 µM (inactive) |
